In patent US20060128695A1, “Cyclic nucleotide phosphodiesterase inhibitors, preparation and uses” (NEURO3D, priority 2002, published 2006):

Columns and labels:
PDE1 = test: Selectivity: inhibition of PDE1, radioenzymatic phosphodiesterase assay; type: biochemical, bovine; settings: 10 μM test compound; vascular smooth muscle
Procedure: (§1) A 3 g segment of bovine aortic media cut into pieces with scissors was homogenized with an ultra-turrax then a potter glass/glass homogenizer in 7 volumes by weight of buffer A containing a protease inhibitor cocktail (20 mM Tris-HCl, 0.25 M saccharose, 2 mM magnesium acetate, 1 mM dithiothreitol, 5 mM EGTA, 2000 U/ml aprotinin, 10 mg/l leupeptin and 10 mg/l soya trypsic inhibitor). The homogenizate was centrifuged at 105,000 g for 1 hour. The supernatant was loaded on a DEAE-Sephacel column (15 x 1.6 cm) pre-equilibrated with buffer B (buffer A without the saccharose, EGTA and protease inhibitors). The column was washed until there was no detectable absorption at 280 nm, then eluted with a linear gradient of NaCl (0-0.5 M) in buffer B. 3-ml fractions were collected and enzyme activity was determined under the conditions described hereinbelow to localize the different enzymes PDE1, PDE3, PDE4 and PDE5 which were aliquoted and frozen at −80° C. (Lugnier et al., Biochem. Phamacol., 1986, 35: 1746-1751). PDE2 was prepared from bovine endothelial cells by the same methods (Lugnier and Schini, Biochem. Pharmacol., 1990, 39: 75-84).
(§2) Cyclic nucleotide phosphodiesterase activity was determined by a radioenzymatic method using tritium-labelled cyclic GMP or AMP (1 μM) as substrate (Lugnier et al., 1986). ^3H-labelled adenosine or guanosine monophosphate formed by hydrolysis of the radiolabelled cyclic nucleotide was then converted to ^3H-labelled adenosine or guanosine in a second reaction with […] in excess. The nucleoside formed was separated from the nucleotides by anion exchange chromatography. Nucleoside radioactivity was determined by liquid scintillation counting. […]
(§3) The activity of the compounds was evaluated on other phosphodiesterase isoforms, particularly basal state or calmodulin-activated PDEl from vascular smooth muscle, PDE3, PDE4 and PDE5 from vascular smooth muscle.
(§4) The results obtained are presented in Tables 1 and 2 hereinbelow and are expressed as the percentage inhibition of enzymatic activity produced by […] of the test compound.

PDE3 = molecular target: T1, PDE3 (Bos taurus, UniProt A0A3Q1M1E8); test: Selectivity: inhibition of PDE3, radioenzymatic phosphodiesterase assay; type: biochemical, bovine; settings: 10 μM test compound; vascular smooth muscle; read-out: PDE3 percentage inhibition at 10 μM
T1 sequence (A0A3Q1M1E8 1-1126): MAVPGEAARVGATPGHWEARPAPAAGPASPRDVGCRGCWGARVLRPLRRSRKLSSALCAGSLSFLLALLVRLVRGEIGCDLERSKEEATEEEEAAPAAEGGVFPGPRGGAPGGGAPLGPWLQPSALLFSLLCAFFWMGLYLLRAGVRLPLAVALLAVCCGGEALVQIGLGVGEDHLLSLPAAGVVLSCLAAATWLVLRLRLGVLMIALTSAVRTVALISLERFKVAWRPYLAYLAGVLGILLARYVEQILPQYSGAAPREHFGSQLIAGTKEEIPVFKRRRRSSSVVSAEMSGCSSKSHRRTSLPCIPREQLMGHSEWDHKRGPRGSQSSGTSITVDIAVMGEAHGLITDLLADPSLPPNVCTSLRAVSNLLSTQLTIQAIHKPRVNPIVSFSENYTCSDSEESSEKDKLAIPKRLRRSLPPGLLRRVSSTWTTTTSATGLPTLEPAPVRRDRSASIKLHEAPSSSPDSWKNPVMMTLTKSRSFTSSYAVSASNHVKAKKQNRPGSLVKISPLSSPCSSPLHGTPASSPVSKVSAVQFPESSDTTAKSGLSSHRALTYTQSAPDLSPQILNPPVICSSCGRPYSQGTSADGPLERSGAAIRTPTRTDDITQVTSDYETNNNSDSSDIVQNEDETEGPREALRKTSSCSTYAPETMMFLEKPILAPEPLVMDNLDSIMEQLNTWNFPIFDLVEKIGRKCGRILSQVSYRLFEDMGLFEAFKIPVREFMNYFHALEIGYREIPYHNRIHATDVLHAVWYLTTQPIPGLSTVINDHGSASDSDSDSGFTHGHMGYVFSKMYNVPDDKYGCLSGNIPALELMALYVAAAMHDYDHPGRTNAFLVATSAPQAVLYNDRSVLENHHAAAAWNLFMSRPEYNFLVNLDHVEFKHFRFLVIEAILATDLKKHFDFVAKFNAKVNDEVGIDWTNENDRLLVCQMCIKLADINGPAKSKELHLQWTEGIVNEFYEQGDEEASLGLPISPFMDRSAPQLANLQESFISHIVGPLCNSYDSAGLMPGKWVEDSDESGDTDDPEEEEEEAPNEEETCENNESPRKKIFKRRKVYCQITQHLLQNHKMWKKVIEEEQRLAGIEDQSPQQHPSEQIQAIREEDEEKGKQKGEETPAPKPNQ
Procedure: as §1, §2, §3, §4

mice = test: Elevated plus maze test; type: in vivo, Balb/c or Swiss mice; settings: oral, 1 hour before the test, all doses tested, recorded over 8 minutes, versus control
Description: This test was validated in the rat by Pellow in 1986 and in the mouse by Lister in 1987. It is based on an aversion to open spaces: the open arms elicit anxiety in the animals while the closed arms represent safety. By recording the frequency of entry into each arm, this test evaluates the anxiolytic effect of a molecule in comparison with a reference compound such as buspirone.
Ten to eleven-week old Balb/c or Swiss mice were used for the test. Mice were randomly divided into a control group (treated with the vehicle) and other groups treated with the test compounds.
The test apparatus was a PVC maze with a plexiglass lid, divided into four equivalent exploration arms (45×10 cm), all interconnected by a small platform (10×10 cm). The apparatus was placed 66 crn above the floor. Two arms were opened and the other two closed with a wall (height: 30 cm).
After administration, the mouse was placed on the platform opposite the closed arm. The number of entries and the time spent in each open arm were recorded over 8 minutes.
The treatment was administered 1 hour before the test. The compounds were given orally at different doses. N=10; *** p<0.005 and **** p<0.001 (versus control; Dunnett test).

With `COc1cc2c(cc1OC)N(C)C(=O)CN=C2c1cccc(C(N)=O)c1` [Compound 5a, 3-(7,8-dimethoxy-1-methyl-2-oxo-2,3-dihydro-1H-1,4-benzodiazepin-5-yl)-benzamide] the “PDE1 percentage inhibition at 10 μM” value (PDE1) was 13.2%, the inhibition at 10 µM (PDE3) was 5% and the “percentage of time spent in the open arms” value (mice) was “spent more time in the open arms”.
